In data set [1] the test system is dengue virus type 2. The data set can be described thus: Antiviral activity against DENV-2 infected in BHK-21 cells assessed as cytopathic effect after 96 hrs by LDH assay. Type of data set: functional, organism-based. To be noted: for EC50: BHK-21, 96 h.
Data set [2] in a line: Selectivity index, ratio of CC50 for golden hamster BHK-21 cells EC50 for DENV-2 infected in BHK-21 cells. To be noted: read-out: Selectivity Index. Type of data set: toxicity, cell-based.
Data set [3] can be described thus: Cytotoxicity against golden hamster BHK-21 cells incubated for 48 hrs by MTT assay. Type of data set: cell-based, Mesocricetus auratus.
The test system of data set [4] is dengue virus type 2. The data set can be described thus: Antiviral activity against second round DENV-2 infected in BHK-21 cells assessed as reduction in new virion infectivity measured after 24 hrs by focus-forming assay. The format is functional, organism-based.
Data set [5] concerns BHK-21. The experiment in a line: Reduction in viral structure E protein expression in second round DENV-2 infected golden hamster BHK-21 cells assessed in new virions at 0.5 to 10 uM measured after 24 hrs by Western blot analysis relative to control. The format is functional, cell-based. Particulars: dengue virus type 2, dose 0.5-10 µM.
A short description of data set [6]: Reduction in viral structure E protein expression in DENV-2 infected golden hamster BHK-21 cells at 10 uM by Western blot analysis relative to control. The format is functional, dengue virus type 2. Particulars: Dengue virus.
Data set [7] deals with BHK-21. The experiment in a line: Binding affinity to RdRp domain of NS5 in DENV-2 infected in BHK-21 cells by isothermal titration calorimetry assay. Particulars: dengue virus type 2.
Data set [8] concerns BHK-21. The experiment in a line: Reduction in viral structure E protein expression in DENV-2 infected golden hamster BHK-21 cells at 2.5 uM by Western blot analysis relative to control. Type of data set: functional, cell-based. Particulars: dengue virus type 2.
Data set [9] concerns BHK-21. The data set can be described thus: Reduction in viral structure E protein expression in second round DENV-2 infected golden hamster BHK-21 cells assessed in new virions at 0.5 to 10 uM measured after 24 hrs by confocal microscopy relative to control. The format is functional, cell-based. Particulars: dengue virus type 2, dose 0.5-10 µM.
The test system of data set [10] is BHK-21. The experiment in a line: Binding affinity to MTase domain of NS5 in DENV-2 infected in BHK-21 cells by isothermal titration calorimetry assay. To be noted: dengue virus type 2.

Activity calls are given as the source filed them. The rule behind the calls is not given here.

In the case of `CC1(C)CC(=O)C2=C(C1)N(c1ccccc1)C(c1ccc([N+](=O)[O-])cc1)N(c1ccccc1)C2` (centres undefined), the EC50 in [1] amounted to 3.75 µM.
`CC1(C)CC(=O)C2=C(C1)N(c1ccccc1)C(c1ccc(Br)cc1)N(c1ccc(-c3ccccc3)cc1)C2` (centres undefined): the EC50 in [1] is above 20 µM.
Regarding `CC1(C)CC(=O)C2=C(C1)N(c1ccccc1)C(c1ccc(-c3ccccc3)cc1)N(c1ccccc1)C2` (centres undefined), in data set [1], the 50% effective concentration (EC50) was above 20 µM.
Still for that read-out and setting: as for `CC1(C)CC(=O)C2=C(C1)N(c1ccccc1)C(c1cccc([N+](=O)[O-])c1)N(c1ccccc1)C2` (centres undefined), the figure is 2.83 µM.
`CC1(C)CC(=O)C2=C(C1)N(c1ccccc1)C(c1cccs1)N(c1ccccc1)C2` (centres undefined): the EC50 in data set [1] was above 20 µM.
Same read-out and setting: the result for `CC1(C)CC(=O)C2=C(C1)N(c1ccccc1)C(c1ccc(C(C)(C)C)cc1)N(c1ccccc1)C2` (centres undefined) reads 8.61 µM; that for `CC1(C)CC(=O)C2=C(C1)N(c1ccc(Oc3ccccc3)cc1)C(c1ccc(Br)cc1)N(c1ccc(Cl)cc1)C2` (centres undefined), above 20 µM; that for `CC(C)C1N(c2ccccc2)CC2=C(CC(C)(C)CC2=O)N1c1ccccc1` (centres undefined), above 20 µM.
Turning to `CC1(C)CC(=O)C2=C(C1)N(c1ccccc1)C(c1ccc(Br)cc1)N(Cc1ccccc1)C2` (centres undefined), the 50% effective concentration (EC50) in [1] was above 20 µM.
With `CC1(C)CC(=O)C2=C(C1)N(c1ccccc1)C(c1ccc(Br)cc1)N(c1ccc(Br)cc1)C2` (centres undefined), the half-maximal effective concentration (EC50) in data set [1] came to 2.33 µM.
With `CCCCC1N(c2ccccc2)CC2=C(CC(C)(C)CC2=O)N1c1ccccc1` (centres undefined), the half-maximal effective concentration (EC50) in data set [1] is above 20 µM.
Regarding `COc1ccc(N2C3=C(CN(c4ccc(Cl)cc4)C2c2ccc(Br)cc2)C(=O)CC(C)(C)C3)cc1` (centres undefined), the selectivity ratio in data set [2] is above 7.69. The CC50 at 48 h in [3] was above 20 µM. Besides, in [1], the half-maximal effective concentration (EC50) came out at 2.6 µM.
With `COc1cc(C2N(c3ccccc3)CC3=C(CC(C)(C)CC3=O)N2c2ccccc2)cc(OC)c1O` (centres undefined), in [1], the EC50 was above 20 µM.
On to `CC1(C)CC(=O)C2=C(C1)N(c1ccccc1)C(c1ccc(Br)cc1)N(c1ccc(C(C)(C)C)cc1)C2` (centres undefined), for which, in [1], the EC50 was found to be 5.33 µM.
`CC1(C)CC(=O)C2=C(C1)N(c1ccccc1)C(c1ccc(C(F)(F)F)cc1)N(c1ccccc1)C2` (centres undefined): the EC50 in data set [1] is 3.75 µM.
Same read-out and setting: the result for `CC1(C)CC(=O)C2=C(C1)N(c1ccc(Cl)cc1)C(c1ccc(Br)cc1)N(c1ccc(Cl)cc1)C2` (centres undefined) reads 4.33 µM; that for `CC(C)c1ccc(C2N(c3ccccc3)CC3=C(CC(C)(C)CC3=O)N2c2ccccc2)cc1` (centres undefined), 3.6 µM; that for `CC1(C)CC(=O)C2=C(C1)N(c1ccccc1)C(c1ccc(Cl)cc1)N(c1ccccc1)C2` (centres undefined), 5.96 µM.
On the same count and under the same terms, the result for `Cc1ccc(C2N(c3ccccc3)CC3=C(CC(C)(C)CC3=O)N2c2ccccc2)s1` (centres undefined) reads 3.24 µM.
Consider `CC1(C)CC(=O)C2=C(C1)N(c1ccc(F)cc1)C(c1ccc(Br)cc1)N(c1ccc(Cl)cc1)C2` (centres undefined), for which, in data set [2], the selectivity ratio is above 7.58. The compound further yielded a 50% cytotoxic concentration (CC50) at 48 h in data set [3] above 20 µM. Further, the EC50 in data set [1] is 2.64 µM.
As to `CC1(C)CC(=O)C2=C(C1)N(c1ccccc1)C(c1ccc3ccccc3c1)N(c1ccccc1)C2` (centres undefined), the EC50 in data set [1] is above 20 µM.
As to `CC(C)c1ccc(N2CC3=C(CC(C)(C)CC3=O)N(c3ccccc3)C2c2ccc(Br)cc2)cc1` (centres undefined), the concentration giving a half-maximal response (EC50) in data set [1] is 5.55 µM.
On the same count and under the same terms, as for `CC1(C)CC(=O)C2=C(C1)N(c1ccc(Cc3ccccc3)cc1)C(c1ccc(Br)cc1)N(c1ccc(Cl)cc1)C2` (centres undefined), the figure is above 20 µM; as for `CC1(C)CC(=O)C2=C(C1)N(c1ccc(-c3ccccc3)cc1)C(c1ccc(Br)cc1)N(c1ccc(Cl)cc1)C2` (centres undefined), above 20 µM.
Take `CC1(C)CC(=O)C2=C(C1)N(c1ccccc1)C(c1ccc(Br)cc1)N(c1ccc(Oc3ccccc3)cc1)C2` (centres undefined): the selectivity ratio in data set [2] stood at 5.89. Half-maximal cytotoxicity in data set [3] (CC50 at 48 h) was put at 10.9 µM. In [1], the concentration giving a half-maximal response (EC50) turned out to be 1.85 µM.
For the compound `COc1ccc(N2CC3=C(CC(C)(C)CC3=O)N(c3ccccc3)C2c2ccc(Br)cc2)cc1` (centres undefined), in data set [1], the EC50 is 5.42 µM.
As for `CC1(C)CC(=O)C2=C(C1)N(c1ccccc1)C(c1ccc(Br)cc1)N(c1ccc(C(F)(F)F)cc1)C2` (centres undefined), in data set [1], the EC50 came out at 4.02 µM.
Regarding `COc1ccc(C2N(c3ccccc3)CC3=C(CC(C)(C)CC3=O)N2c2ccccc2)cc1` (centres undefined), the concentration for a half-maximal effect (EC50) in [1] was determined as 7.52 µM.
The same measure, in the same setting: as for `CC1(C)CC(=O)C2=C(C1)N(c1ccccc1)C(c1ccc(OC(F)(F)F)cc1)N(c1ccccc1)C2` (centres undefined), the figure is 2.52 µM.
As to `CC1(C)CC(=O)C2=C(C1)N(c1ccccc1)C(c1cccc3ccccc13)N(c1ccccc1)C2` (centres undefined), the half-maximal effective concentration (EC50) in data set [1] is 3.87 µM.
On to `CC1(C)CC(=O)C2=C(C1)N(c1ccccc1)C(c1ccc(O)cc1)N(c1ccccc1)C2` (centres undefined), for which the EC50 in [1] was above 20 µM.
As for `CC1(C)CC(=O)C2=C(C1)N(c1ccccc1)C(c1ccc(C#N)cc1)N(c1ccccc1)C2` (centres undefined), the concentration for a half-maximal effect (EC50) in data set [1] worked out at 7.45 µM.
Still for that read-out and setting: the result for `CC1(C)CC(=O)C2=C(C1)N(c1ccccc1)C(c1ccc(Br)cc1)N(c1cccc(Cl)c1)C2` (centres undefined) reads 4.73 µM.
In the case of `CC1(C)CC(=O)C2=C(C1)N(c1ccccc1)C(c1ccc(OC(C)(C)C)cc1)N(c1ccccc1)C2` (centres undefined), the half-maximal effective concentration (EC50) in [1] is 2.63 µM.
Turning to `CC1(C)CC(=O)C2=C(C1)N(c1ccccc1)C(c1ccc(Br)cc1)N(c1ccc(Cl)cc1)C2` (centres undefined), the selectivity ratio in data set [2] was found to be 9.18. In data set [3], this compound came in with a CC50 at 48 h of 12.7 µM. Further, the EC50 in data set [1] was found to be 1.38 µM.
Take `CC(C)Oc1ccc(C2N(c3ccccc3)CC3=C(CC(C)(C)CC3=O)N2c2ccccc2)cc1` (centres undefined): the EC50 in data set [1] was found to be 5.03 µM.
With `CC1(C)CC(=O)C2=C(C1)N(c1ccccc1)C(c1cccc(Br)c1)N(c1ccccc1)C2` (centres undefined), in data set [4], the outcome was Active. Further, the inhibition entry in data set [5], in [8] and in data set [9] was “Active” throughout. In addition, the inhibition at 10 µM in [6] amounted to 100%. Also, the selectivity ratio in data set [2] is above 15.3. The same compound had a half-maximal cytotoxic concentration (CC50) at 48 h in data set [3] above 20 µM. The outcome in data set [7] and in data set [10] was inactive. The Activity entry in data set [1] is “Dose-dependent effect”. In addition, in data set [1], the concentration for a half-maximal effect (EC50) came to 1.31 µM.
As to `CC1(C)CC(=O)C2=C(C1)N(c1ccccc1)C(c1cccc(C(F)(F)F)c1)N(c1ccccc1)C2` (centres undefined), the selectivity ratio in [2] is 13.5. The same compound showed a CC50 at 48 h in [3] of 17.9 µM. Moreover, the concentration giving a half-maximal response (EC50) in data set [1] is 1.32 µM.
As to `CC1(C)CC(=O)C2=C(C1)N(c1cccc(Cl)c1)C(c1ccc(Br)cc1)N(c1ccc(Cl)cc1)C2` (centres undefined), in data set [1], the EC50 came out at 5.6 µM.
With `CC1(C)CC(=O)C2=C(C1)N(c1ccccc1)C(c1ccccc1)N(c1ccccc1)C2` (centres undefined), in data set [1], the EC50 is above 20 µM.
In the case of `CC1(C)CC(=O)C2=C(C1)N(c1ccccc1)C(c1ccc(Br)cc1)N(c1ccc3ccccc3c1)C2` (centres undefined), the concentration for a half-maximal effect (EC50) in data set [1] came out at 1.77 µM.
`CC1(C)CC(=O)C2=C(C1)N(c1ccccc1)C(c1ccc(F)cc1)N(c1ccccc1)C2` (centres undefined): in data set [1], the EC50 was above 20 µM.
For `CC1(C)CC(=O)C2=C(C1)N(c1ccccc1)C(c1ccc(Br)cc1)N(c1ccc(OC(F)(F)F)cc1)C2` (centres undefined), the 50% effective concentration (EC50) in [1] stood at 1.84 µM.
Regarding `CC1(C)CC(=O)C2=C(C1)N(c1ccccc1)C(c1ccc(Br)cc1)N(c1ccccc1)C2` (centres undefined), in data set [2], the selectivity ratio was above 7.02. Also, the CC50 at 48 h in [3] was above 20 µM. Also, the EC50 in data set [1] worked out at 2.85 µM.
Consider `CC1(C)CC(=O)C2=C(C1)N(Cc1ccccc1)C(c1ccccc1)N(Cc1ccccc1)C2` (centres undefined), for which the EC50 in data set [1] is above 20 µM.
On to `CC1(C)CC(=O)C2=C(C1)N(c1ccccc1)C(c1ccc(Br)cc1)N(c1ccc(F)cc1)C2` (centres undefined), for which the selectivity ratio in [2] is 5.3. Also, it took 10 µM to reach half-maximal cytotoxicity in [3] (CC50 at 48 h). For the same compound, the concentration for a half-maximal effect (EC50) in [1] turned out to be 1.9 µM.
For `CC1(C)CC(=O)C2=C(C1)N(c1ccccc1)C(c1ccc(OCc3ccccc3)cc1)N(c1ccccc1)C2` (centres undefined), in data set [1], the concentration for a half-maximal effect (EC50) was found to be 2.61 µM.
For `CC1(C)CC(=O)C2=C(C1)N(c1ccccc1)C(c1ccc(Br)cc1)N(c1ccccc1Cl)C2` (centres undefined), the EC50 in data set [1] is above 20 µM.
On to `CC1(C)CC(=O)C2=C(C1)N(c1ccccc1)C(c1ccccc1Br)N(c1ccccc1)C2` (centres undefined), for which the EC50 in [1] came to 3.88 µM.
Turning to `CC1(C)CC(=O)C2=C(C1)N(c1ccc3ccccc3c1)C(c1ccc(Br)cc1)N(c1ccc(Cl)cc1)C2` (centres undefined), the EC50 in data set [1] was found to be 13.5 µM.

(Values after ChEMBL document CHEMBL4765341, “A series of octahydroquinazoline-5-ones as novel inhibitors against dengue virus” (Eur J Med Chem, 2020).)
